Test in all cases: ≥ marks a high value that may be exact or a test limit, other limits are often not marked, values filed in µg/mL are converted to µM
Assay [1] concerns Bacillus subtilis KCTC 3068.
In assay [2] the test system is Escherichia coli KCTC 1682.
Assay [3] deals with Salmonella typhimurium KCTC 1926.
Assay [4] relates to Staphylococcus aureus KCTC 1621.
For assay [5], the system named is Pseudomonas aeruginosa ATCC 9027.
Assay [6] concerns Staphylococcus aureus ATCC 6538.
Assay [7] deals with Bacillus subtilis 168.
Assay [8] has as its system Escherichia coli B.
Assay [9] has as its system Pseudomonas aeruginosa.
The subject of assay [10] is Staphylococcus aureus.
The test system of assay [11] is Acinetobacter baumannii.
In assay [12] the test system is Enterococcus faecalis.
Assay [13] concerns Escherichia coli.
In assay [14] the test system is Klebsiella pneumoniae.
Assay [15] deals with Staphylococcus epidermidis.
For assay [16], the system named is Bacillus subtilis.
Assay [17] concerns Candida albicans ATCC 2002.
Assay [18] deals with Escherichia coli ATCC 25922.
The subject of assay [19] is Staphylococcus aureus ATCC 2592.
Assay [20] relates to Shigella dysenteriae.
Assay [21] deals with Escherichia coli BL21.

Values after ≈ are worked out from the molar mass of the structure shown.

The record followed here is DBAASP.

Usually MIC stands for the smallest concentration in the dilution series that meets the test's criterion for growth inhibition. High values mean weaker potency, low ones greater potency.

As to `CC(C)C[C@H](NC(=O)[C@H](Cc1ccccc1)NC(=O)[C@@H]1CCCN1C(=O)[C@H](Cc1c[nH]c2ccccc12)NC(=O)[C@H](Cc1c[nH]c2ccccc12)NC(=O)[C@H](Cc1c[nH]c2ccccc12)NC(=O)[C@@H]1CCCN1C(=O)[C@H](Cc1ccccc1)NC(=O)[C@H](CCCNC(=N)N)NC(=O)[C@H](CCCNC(=N)N)NC(=O)[C@@H](N)C(C)C)C(=O)N[C@@H](CCCNC(=N)N)C(=O)N[C@@H](CCCNC(=N)N)C(=O)O` [VRRFPWWWPFLRR], the MIC is 8.41 µM (≈ 16 µg/mL) in assay [1], at least 33.6 µM in assay [2], 16.8 µM (≈ 32 µg/mL) in assay [3] and 8.41 µM (≈ 16 µg/mL) in assay [4].
For `CC[C@H](C)[C@H](NC(=O)[C@H](CC(N)=O)NC(=O)[C@H](CCCN=C(N)N)NC(=O)CNC(=O)[C@H](CCSC)NC(=O)[C@H](CCCCN)NC(=O)[C@H](CCC(=O)O)NC(=O)[C@@H](NC(=O)[C@H](CCCCN)NC(=O)[C@H](CC(C)C)NC(=O)[C@H](Cc1ccccc1)NC(=O)[C@@H](NC(=O)[C@H](CCCCN)NC(=O)[C@H](CCC(=O)O)NC(=O)[C@H](CCCCN)NC(=O)[C@@H]1CCCN1C(=O)[C@@H](N)CCSC)C(C)C)[C@@H](C)CC)C(=O)N[C@@H](CCCN=C(N)N)C(=O)N[C@@H](CC(N)=O)C(N)=O` [MPKEKVFLKIEKMGRNIRN], the MIC in assay [5] and in assay [6] was over 85.8 µM in each case.
Take `CC[C@H](C)[C@H](NC(=O)[C@H](CO)NC(=O)[C@H](CC(C)C)NC(=O)[C@H](Cc1ccccc1)NC(=O)CN)C(=O)N[C@@H](CC(C)C)C(=O)N[C@@H](CCCCN)C(=O)N[C@@H](CCCCN)C(=O)N[C@H](C(=O)N[C@@H](CC(C)C)C(=O)N1CCC[C@H]1C(=O)N[C@@H](CCCCN)C(=O)N[C@H](C(=O)N[C@@H](CCSC)C(=O)N[C@@H](C)C(=O)N[C@@H](Cc1cnc[nH]1)C(=O)N[C@@H](CCSC)C(=O)N[C@@H](CCCCN)C(N)=O)C(C)C)C(C)C` [GFLSILKKVLPKVMAHMK]: the minimum inhibitory concentration (MIC) in assay [7] came out at 0.62 µM (≈ 1.26 µg/mL); in assay [8], 1 µM (≈ 2.04 µg/mL); in [9] it was 22 µM (≈ 44.9 µg/mL); in assay [10], 40 µM (≈ 81.6 µg/mL).
In the case of `CC[C@H](C)[C@H](NC(=O)CNC(=O)[C@H](CCCN=C(N)N)NC(=O)[C@H](Cc1ccc(O)cc1)NC(=O)[C@H](CC(C)C)NC(=O)[C@H](CCCCN)NC(=O)CNC(=O)[C@H](Cc1ccccc1)NC(=O)[C@@H](N)Cc1c[nH]c2ccccc12)C(=O)N[C@H](C(=O)N[C@@H](CCCCN)C(=O)N[C@H](C(=O)N[C@H](C(=O)N[C@@H](CCCCN)C(=O)N[C@@H](CCCCN)C(=O)N[C@H](C(=O)N[C@@H](CCCCN)C(=O)NCC(=O)N[C@@H](CC(C)C)C(=O)N[C@@H](CC(C)C)C(=O)N[C@@H](CCCCN)C(=O)NCC(=O)O)C(C)C)C(C)C)C(C)C)[C@@H](C)O` [WFGKLYRGITKVVKKVKGLLKG], the MIC in assay [11] is 0.6 µM (≈ 1.51 µg/mL); in assay [12], 1.2 µM (≈ 3.02 µg/mL); in [13] it was 1.2 µM (≈ 3.02 µg/mL); in assay [14] it was 0.6 µM (≈ 1.51 µg/mL); in assay [9] it was 1.3 µM (≈ 3.27 µg/mL); in [10], 9.9 µM (≈ 24.9 µg/mL). Moreover, the minimum inhibitory concentration (MIC) in assay [15] turned out to be 1.2 µM (≈ 3.02 µg/mL).
With `CC[C@H](C)[C@H](NC(=O)CNC(=O)[C@H](CO)NC(=O)[C@H](CC(C)C)NC(=O)[C@@H](N)Cc1ccccc1)C(=O)N[C@@H](CC(C)C)C(=O)N[C@@H](CCCCN)C(=O)N[C@@H](CC(C)C)C(=O)N[C@@H](C)C(=O)N[C@@H](Cc1ccccc1)C(=O)N[C@@H](CCCCN)C(=O)N[C@H](C(=O)N1CCC[C@H]1C(=O)N[C@@H](CO)C(=O)N[C@H](C(=O)N[C@@H](CC(C)C)C(=O)N[C@H]1CSSC[C@@H](C(=O)O)NC(=O)[C@H](CC(N)=O)NC(=O)[C@H](CCCCN)NC(=O)[C@H](CC(C)C)NC(=O)[C@H](C(C)C)NC(=O)[C@H](C)NC1=O)C(C)C)[C@@H](C)CC` [FLSGILKLAFKIPSVLCAVLKNC], the minimum inhibitory concentration (MIC) worked out at 20.2 µM (≈ 50 µg/mL) in assay [16], 10.1 µM (≈ 25 µg/mL) in [17], 10.1 µM (≈ 25 µg/mL) in [18] and 5.04 µM (≈ 12.5 µg/mL) in assay [19].
`CC[C@H](C)[C@H](NC(=O)[C@H](Cc1cnc[nH]1)NC(=O)[C@H](CCCCN)NC(=O)[C@H](CC(C)C)NC(=O)[C@H](CCCCN)NC(=O)[C@H](CO)NC(=O)[C@H](CCSC)NC(=O)[C@H](Cc1c[nH]c2ccccc12)NC(=O)[C@H](CCCCN)NC(=O)CN)C(=O)N[C@@H](CC(C)C)C(=O)N[C@@H](CCCCN)C(N)=O` [GKWMSKLKHILK]: the MIC is 3.7 µM (≈ 5.43 µg/mL) in assay [7], at least 45 µM in assay [8], over 100 µM in assay [9] and over 100 µM in [10].
As to `CC(C)C[C@H](NC(=O)CNC(=O)[C@@H](NC(=O)[C@@H]1CCCN1C(=O)[C@H](CC(C)C)NC(=O)CNC(=O)[C@H](CC(N)=O)NC(=O)[C@H](CC(N)=O)NC(=O)[C@H](Cc1ccc(O)cc1)NC(=O)[C@@H](NC(=O)[C@H](CCCN=C(N)N)NC(=O)[C@H](CS)NC(=O)[C@H](CCCN=C(N)N)NC(=O)[C@H](Cc1cnc[nH]1)NC(=O)[C@H](CCCCN)NC(=O)[C@@H](N)CCCCN)C(C)C)[C@@H](C)O)C(=O)N[C@@H](Cc1ccc(O)cc1)C(=O)N[C@@H](CCCN=C(N)N)C(=O)N[C@@H](Cc1c[nH]c2ccccc12)C(=O)N[C@@H](CS)C(N)=O` [KKHRCRVYNNGLPTGLYRWC], the MIC in assay [6] stood at 2.4 µM (≈ 5.91 µg/mL).
For `CC(C)C[C@H](NC(=O)[C@H](CCCCN)NC(=O)[C@H](CCCCN)NC(=O)[C@H](C)NC(=O)[C@H](CC(C)C)NC(=O)[C@H](CCCCN)NC(=O)[C@H](CCCCN)NC(=O)[C@H](C)NC(=O)[C@H](Cc1ccccc1)NC(=O)[C@H](CCCCN)NC(=O)[C@H](CCCCN)NC(=O)[C@H](Cc1ccccc1)NC(=O)[C@H](CC(C)C)NC(=O)[C@H](CCCCN)NC(=O)[C@@H](NC(=O)[C@H](CCCCN)NC(=O)[C@H](CCCCN)NC(=O)[C@H](CCCCN)NC(=O)[C@H](Cc1ccccc1)NC(=O)[C@H](CC(C)C)NC(=O)[C@H](CCCCN)NC(=O)[C@H](Cc1c[nH]c2ccccc12)NC(=O)[C@@H](N)CCCCN)[C@@H](C)O)C(=O)O` [KWKLFKKKTKLFKKFAKKLAKKL], the MIC is over 69.5 µM in assay [5] and 3.47 µM (≈ 10 µg/mL) in assay [6].
`CC[C@H](C)[C@H](NC(=O)[C@@H]1CCCN1C(=O)[C@H](CC(C)C)NC(=O)[C@@H](N)Cc1ccccc1)C(=O)N[C@H](C(=O)NCC(=O)N[C@@H](CCCCN)C(=O)N[C@@H](CC(C)C)C(=O)N[C@@H](CC(C)C)C(=O)N[C@@H](CO)C(=O)NCC(=O)N[C@@H](CC(C)C)C(=O)N[C@@H](CO)C(=O)NCC(=O)N[C@@H](CC(C)C)C(=O)N[C@@H](CC(C)C)C(N)=O)C(C)C` [FLPIVGKLLSGLSGLL]: the MIC in [17] was found to be 4 µM (≈ 6.5 µg/mL); in [18], 1.84 µM (≈ 3 µg/mL); in [20], 0.922 µM (≈ 1.5 µg/mL); in assay [19] it was 1.23 µM (≈ 2 µg/mL).
In assay [21], `CC[C@H](C)[C@H](NC(=O)[C@@H]1CCCN1C(=O)[C@H](CC(C)C)NC(=O)[C@H](Cc1ccc(O)cc1)NC(=O)[C@H](Cc1cnc[nH]1)NC(=O)[C@H](C)NC(=O)CNC(=O)[C@H](C)NC(=O)[C@@H](NC(=O)[C@H](C)NC(=O)[C@H](CS)NC(=O)[C@H](C)NC(=O)[C@@H]1CCCN1C(=O)CNC(=O)[C@H](CS)NC(=O)[C@@H](NC(=O)[C@@H](NC(=O)CNC(=O)CNC(=O)[C@@H](N)C(C)C)[C@@H](C)O)[C@@H](C)CC)C(C)C)C(=O)O` [VGGTICGPACAVAGAHYLPI] registered an MIC of at least 128 µM.
For the molecule `CC[C@H](C)[C@@H]1NC(=O)[C@H](CO)NC(=O)[C@H](CCCCN)NC(=O)[C@H]([C@@H](C)O)NC(=O)[C@H](Cc2c[nH]c3ccccc23)NC(=O)[C@@H](NC(=O)CNC(=O)[C@H](CCCCN)NC(=O)[C@H](CC(C)C)NC(=O)[C@H](C)NC(=O)[C@H](C)N)CSSC[C@@H](C(=O)N[C@@H](Cc2ccccc2)C(=O)NCC(=O)N[C@@H](Cc2ccccc2)C(=O)O)NC(=O)[C@@H]2CCCN2C(=O)[C@H](CCCCN)NC(=O)[C@@H]2CCCN2C(=O)[C@@H]2CCCN2C1=O` [AALKGCWTKSIPPKPCFGF], the minimal inhibitory concentration (MIC) amounted to 1.19 µM (≈ 2.44 µg/mL) in assay [16], 2.32 µM (≈ 4.76 µg/mL) in assay [17], 1.38 µM (≈ 2.84 µg/mL) in assay [18] and 1.03 µM (≈ 2.12 µg/mL) in [19].
